For this experiment, the target named is T1, human mPGES-1 (Homo sapiens, UniProt O14684).
T1 sequence (O14684 1-152): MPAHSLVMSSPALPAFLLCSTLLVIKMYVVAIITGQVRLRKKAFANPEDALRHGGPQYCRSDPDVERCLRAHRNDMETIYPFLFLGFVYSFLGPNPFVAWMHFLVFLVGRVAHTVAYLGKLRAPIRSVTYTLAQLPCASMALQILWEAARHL
The experiment is described as follows: Microsomal prostaglandin E synthase biochemical assay. To be noted: microsome preparation containing human mPGES-1; PGH2 10.8 μM, GSH 2.5 mM, pH 6.8; PGE2 by HTRF; average of at least n=2. As to the method:
Compounds were tested as inhibitors of microsomal prostaglandin E synthase activity in microsomal prostaglandin E synthase assays and whole cell assays. These assays measure prostaglandin E2 (PGE2) synthesis which is taken as a measure of prostaglandin E synthase activity. Microsomal prostaglandin E synthase biochemical assays used microsomal prostaglandin E synthase-1 in microsomal preparations. The source of the microsomes can be for example interleukin-1β-stimulated human A549 cells (which express human mPGES-1) or Sf9 cells transfected with plasmids encoding human mPGES-1 cDNA. The whole blood assay [described by Patrignani, P. et al., Journal of Pharmacology and Experimental Therapeutics, 1994, vol. 271, pp 1705-1712] was used as the whole cell assay for testing the compounds. Whole blood provides a protein and cell rich milieu for the study of biochemical efficacy of anti-inflammatory compounds such as prostaglandin synthase inhibitors. To study the inhibitory activities of these compounds, human blood was stimulated with lipopolysaccharide (LPS) for typically 16 hours to induce mPGES-1 expression, after which the concentration of produced PGE2 was measured by competitive-immuno assay (homogeneous time-resolved fluorescence, HTRF) as read out for effectiveness against mPGES-1-dependent PGE2 production.
Microsomal Prostaglandin E Synthase Biochemical Assay
A solution of test compound was added to a diluted microsome preparation containing human mPGES-1 and pre-incubated for 15 minutes in potassium phosphate buffer pH 6.8 with cofactor glutathione (GSH). Corresponding solutions without test compound were used as positive controls, and corresponding solutions without test compound and without microsomes were used as negative controls. The enzymatic reaction was then started by addition of the substrate PGH2 in an organic solution (dry acetonitrile).
The typical reaction conditions of the enzymatic reaction were thus: Test compound: ranging from 60 μM to 0.002 μM, or zero in positive and negative controls; potassium phosphate buffer pH 6.8: 50 mM; GSH: 2.5 mM; mPGES-1-containing microsomes: 2 μg/mL (sample and positive controls) or 0 μg/mL (negative control); PGH2: 10.8 μM; Acetonitrile: 7.7% (v/v); DMSO: 0.6% (v/v). The reaction was stopped after one minute by adding an acidic solution (pH 1.9) of ferric chloride and citrate (final concentrations 7 mM and 47 mM respectively), by which the PGH2 was sequestered (the PGH2 is reduced to mainly 12-hydroxy heptadecatrineoic acid (12-HHT) which is not detected by the subsequent PGE2 detection step). The resulting solution was then pH neutralized by addition of potassium phosphate buffer, prior to diluting an aliquot of the resulting solution in a weak potassium phosphate buffer (50 mM, pH 6.8) containing 0.2% BSA (w/v). [Adapted from Jacobsson et al., Proc. Natl. Acad. Sci. USA, 1999, vol. 96, pp. 7220-7225]The PGE2 formed was quantified by use of a commercial HTRF based kit (catalogue #62PG2PEC or #62P2APEC from Cisbio International). 100% activity was defined as the PGE2 production in positive controls subtracted by the PGE2 production in the negative controls. IC50 values were then determined using standard procedures.
The potency is expressed as IC50 and the value indicated is an average of at least n=2.
In general terms: TR-FRET usually uses a lanthanide donor and a delayed reading to cut background.
The IC50 is the concentration at which inhibition is half-maximal. On to `CC(Cc1ccc(Cl)cc1)S(=O)(=O)Nc1ccccc1S(N)(=O)=O` (centres unmarked) [Example 7, 2-[1-(4-Chlorophenyl)propan-2-ylsulfonylamino]benzenesulfonamide], for which 280 nM corresponded to half-maximal inhibition (IC50).
In turn, `NS(=O)(=O)c1ccccc1NS(=O)(=O)c1ccc(-c2ccc(Cl)c(Cl)c2)cc1` [Example 173, 2-[[4-(3,4-Dichlorophenyl)phenyl]sulfonylamino]benzenesulfonamide] yielded an IC50 of 1500 nM.
The figure for `NS(=O)(=O)c1cc(F)ccc1NS(=O)(=O)/C=C/c1ccc2ccccc2c1` [Example 99, 5-Fluoro-2-[[(E)-2-naphthalen-2-ylethenyl]sulfonylamino]benzenesulfonamide] is 290 nM; for `Cc1ccc(NS(=O)(=O)CCc2ccc(Br)cc2)c(S(N)(=O)=O)c1` [Example 189, 2-(2-(4-Bromophenyl)ethylsulfonamido)-5-methylbenzenesulfonamide] it is 1400 nM; for `NS(=O)(=O)c1ccccc1NS(=O)(=O)CCc1ccc(C2CCCO2)cc1` (centres unmarked) [Example 17, 2-[2-[4-(Oxolan-2-yl)phenyl]ethylsulfonylamino]benzenesulfonamide] it is 5300 nM.
To `NS(=O)(=O)c1ccccc1NS(=O)(=O)c1cccc(-c2cccc(Cl)c2Cl)c1` [Example 113, 2-[[3-(2,3-Dichlorophenyl)phenyl]sulfonylamino]benzenesulfonamide] belongs 480 nM.
To `COc1cc(Cl)ccc1CCS(=O)(=O)Nc1cc(F)cc(F)c1S(N)(=O)=O` [Example 198, 2-(2-(4-Chloro-2-methoxyphenyl)ethylsulfonamido)-4,6-difluorobenzenesulfonamide] belongs 290 nM; to `CN(C)c1ccc(-c2cccc(S(=O)(=O)Nc3ccccc3S(N)(=O)=O)c2)cn1` [Example 170, 3-(6-Dimethylaminopyridin-3-yl)-N-(2-sulfamoylphenyl)benzenesulfonamide], 290 nM.
Molecule `COc1ncc(-c2cccc(S(=O)(=O)Nc3ccccc3S(N)(=O)=O)c2)cn1` [Example 165, 3-(2-Methoxypyrimidin-5-yl)-N-(2-sulfamoylphenyl)benzenesulfonamide] yielded an IC50 of 2300 nM.
In turn, `NS(=O)(=O)c1cc(Cl)c(F)cc1NS(=O)(=O)CCc1ccc(Cl)cc1` [Example 232, 5-Chloro-2-(2-(4-chlorophenyl)ethylsulfonamido)-4-fluorobenzenesulfonamide] had an IC50 of 870 nM.
To `NS(=O)(=O)c1cc(F)ccc1NS(=O)(=O)c1cccc(F)c1F` [Example 147, 2,3-Difluoro-N-(4-fluoro-2-sulfamoyl-phenyl)benzenesulfonamide] belongs 3900 nM; to `Cc1ccc(NS(=O)(=O)c2cccc(-c3ccc(Cl)c(Cl)c3)c2)c(S(N)(=O)=O)c1` [Example 150, 2-[[3-(3,4-Dichlorophenyl)phenyl]sulfonylamino]-5-methyl-benzenesulfonamide], 4200 nM.
The molecule `Cc1ccncc1-c1cccc(S(=O)(=O)Nc2ccccc2S(N)(=O)=O)c1` [Example 166, 3-(4-Methylpyridin-3-yl)-N-(2-sulfamoylphenyl)benzenesulfonamide] came in with an IC50 of 4800 nM. The IC50 values of the last two molecules are within 1.5-fold of each other.
To `NS(=O)(=O)c1ccccc1NS(=O)(=O)/C=C/c1ccc(-c2cc3ccccc3o2)cc1` [Example 3, 2-[[(E)-2-(4-Benzofuran-2-ylphenyl)ethenyl]sulfonylamino]benzenesulfonamide] belongs 140 nM; to `CC(Cc1ccc(Cl)cc1)S(=O)(=O)Nc1cc(F)ccc1S(N)(=O)=O` (centres unmarked) [Example 10, 2-[1-(4-Chlorophenyl)propan-2-ylsulfonylamino]-4-fluoro-benzenesulfonamide], 450 nM; to `NS(=O)(=O)c1ccccc1NS(=O)(=O)c1ccc(OCc2ccccc2)cc1` [Example 127, 4-Phenylmethoxy-N-(2-sulfamoylphenyl)benzenesulfonamide], 5100 nM.
The figure for `NS(=O)(=O)c1ccc(F)cc1NS(=O)(=O)/C=C/c1ccc(C(F)(F)F)cc1` [Example 94, 4-Fluoro-2-[[(E)-2-[4-(trifluoromethyl)phenyl]ethenyl]sulfonylamino]-benzenesulfonamide] is 650 nM.

The values above are taken from patent publication US20090163586A1, “Bis-(Sulfonylamino) Derivatives in Therapy 205” (AstraZeneca AB, priority 2007, published 2009).
